Data from ChEMBL document CHEMBL1201862, “PubChem BioAssay data set” (2004).
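Where inhibition never reached the appropriate level, the endpoint shown equals the highest concentration tested. Otherwise, values were interpolated linearly from a five-concentration, 48-hour dose response in 96-well plates. GI50 marks 50% less growth.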 The source made the active and inactive calls. Rule as the data show it: active = GI50 up to about 1.1 µM and inactive = higher.

What was measured:
Assay in all cases: growth of human tumour cells (NCI), 48 h
786-0 = system: 786-0
A498 = system: A498
A549 = system: A549
ACHN = system: ACHN
CAKI-1 = system: CAKI-1
CCRF-CEM = system: CCRF-CEM
COLO 205 = system: COLO 205
DLD-1 = system: DLD-1
DMS-114 = system: DMS-114
DMS-273 = system: DMS-273
EKVX = system: EKVX
HCC 2998 = system: HCC 2998
HCT-116 = system: HCT-116
HL-60 = system: HL-60
HOP-18 = system: HOP-18
HOP-62 = system: HOP-62
HOP-92 = system: HOP-92
HT-29 = system: HT-29
IGROV-1 = system: IGROV-1
K562 = system: K562
KM-20L2 = system: KM-20L2
KM12 = system: KM12
LOX IMVI = system: LOX IMVI
LXFL 529 = system: LXFL 529
M14 = system: M14
M19-MEL = system: M19-MEL
MOLT-4 = system: MOLT-4
Malme-3M = system: Malme-3M
NCI-H226 = system: NCI-H226
NCI-H23 = system: NCI-H23
NCI-H460 = system: NCI-H460
NCI-H522 = system: NCI-H522
OVCAR-3 = system: OVCAR-3
OVCAR-4 = system: OVCAR-4
OVCAR-5 = system: OVCAR-5
OVCAR-8 = system: OVCAR-8
RPMI-8226 = system: RPMI-8226
RXF 393 = system: RXF 393
SF-268 = system: SF-268
SF-295 = system: SF-295
SF-539 = system: SF-539
SK-MEL-28 = system: SK-MEL-28
SK-OV-3 = system: SK-OV-3
SN12C = system: SN12C
SNB-19 = system: SNB-19
SNB-75 = system: SNB-75
SNB-78 = system: SNB-78
SR = system: SR
SW-620 = system: SW-620
TK-10 = system: TK-10
U-251 = system: U-251
UACC-257 = system: UACC-257
UACC-62 = system: UACC-62
UO-31 = system: UO-31
XF498 = system: XF498
HCT-15 = system: HCT-15
RXF 631 = system: RXF 631
SK-MEL-2 = system: SK-MEL-2
SK-MEL-5 = system: SK-MEL-5

CN1C(=O)CC(CC(=O)C2CCCCC2=O)CC1=O (stereo unspecified)
GI50 (786-0): > 100 µM (inactive)
GI50 (A498): > 100 µM (inactive)
GI50 (A549): > 100 µM (inactive)
GI50 (ACHN): > 100 µM (inactive)
GI50 (CAKI-1): > 100 µM (inactive)
GI50 (CCRF-CEM): > 100 µM (inactive)
GI50 (COLO 205): > 100 µM (inactive)
GI50 (DLD-1): > 100 µM (inactive)
GI50 (DMS-114): > 100 µM (inactive)
GI50 (DMS-273): > 100 µM (inactive)
GI50 (EKVX): > 100 µM (inactive)
GI50 (HCC 2998): > 100 µM (inactive)
GI50 (HCT-116): > 100 µM (inactive)
GI50 (HL-60): > 100 µM (inactive)
GI50 (HOP-18): > 100 µM (inactive)
GI50 (HOP-62): > 100 µM (inactive)
GI50 (HOP-92): > 100 µM (inactive)
GI50 (HT-29): > 100 µM (inactive)
GI50 (IGROV-1): > 100 µM (inactive)
GI50 (K562): > 100 µM (inactive)
GI50 (KM-20L2): > 100 µM (inactive)
GI50 (KM12): > 100 µM (inactive)
GI50 (LOX IMVI): > 100 µM (inactive)
GI50 (LXFL 529): > 100 µM (inactive)
GI50 (M14): > 100 µM (inactive)
GI50 (M19-MEL): > 100 µM (inactive)
GI50 (MOLT-4): > 100 µM (inactive)
GI50 (Malme-3M): > 100 µM (inactive)
GI50 (NCI-H226): > 100 µM (inactive)
GI50 (NCI-H23): > 100 µM (inactive)
GI50 (NCI-H460): > 100 µM (inactive)
GI50 (NCI-H522): > 100 µM (inactive)
GI50 (OVCAR-3): > 100 µM (inactive)
GI50 (OVCAR-4): > 100 µM (inactive)
GI50 (OVCAR-5): > 100 µM (inactive)
GI50 (OVCAR-8): > 100 µM (inactive)
GI50 (RPMI-8226): > 100 µM (inactive)
GI50 (RXF 393): > 100 µM (inactive)
GI50 (SF-268): > 100 µM (inactive)
GI50 (SF-295): > 100 µM (inactive)
GI50 (SF-539): > 100 µM (inactive)
GI50 (SK-MEL-28): > 100 µM (inactive)
GI50 (SK-OV-3): > 100 µM (inactive)
GI50 (SN12C): > 100 µM (inactive)
GI50 (SNB-19): > 100 µM (inactive)
GI50 (SNB-75): > 100 µM (inactive)
GI50 (SNB-78): > 100 µM (inactive)
GI50 (SR): > 100 µM (inactive)
GI50 (SW-620): > 100 µM (inactive)
GI50 (TK-10): > 100 µM (inactive)
GI50 (U-251): > 100 µM (inactive)
GI50 (UACC-257): > 100 µM (inactive)
GI50 (UACC-62): > 100 µM (inactive)
GI50 (UO-31): > 100 µM (inactive)
GI50 (XF498): > 100 µM (inactive)

COc1ccc(C2c3cc(OC)c(OC)cc3C(Cc3ccc([N+](=O)[O-])cc3)C2c2ccc([N+](=O)[O-])cc2)cc1OC (stereo unspecified)
GI50 (786-0): > 100 µM (inactive)
GI50 (A498): > 100 µM (inactive)
GI50 (A549): > 100 µM (inactive)
GI50 (ACHN): > 100 µM (inactive)
GI50 (CAKI-1): > 100 µM (inactive)
GI50 (CCRF-CEM): > 100 µM (inactive)
GI50 (COLO 205): > 100 µM (inactive)
GI50 (DLD-1): > 100 µM (inactive)
GI50 (DMS-114): > 100 µM (inactive)
GI50 (DMS-273): > 100 µM (inactive)
GI50 (EKVX): > 100 µM (inactive)
GI50 (HCC 2998): > 100 µM (inactive)
GI50 (HCT-116): 14 µM (inactive)
GI50 (HCT-15): > 100 µM
GI50 (HL-60): > 100 µM (inactive)
GI50 (HOP-62): > 100 µM (inactive)
GI50 (HOP-92): 0.879 µM (active)
GI50 (HT-29): > 100 µM (inactive)
GI50 (IGROV-1): > 100 µM (inactive)
GI50 (K562): > 100 µM (inactive)
GI50 (KM-20L2): > 100 µM (inactive)
GI50 (KM12): > 100 µM (inactive)
GI50 (LOX IMVI): > 100 µM (inactive)
GI50 (LXFL 529): > 100 µM (inactive)
GI50 (M14): > 100 µM (inactive)
GI50 (M19-MEL): > 100 µM (inactive)
GI50 (MOLT-4): > 100 µM (inactive)
GI50 (Malme-3M): > 100 µM (inactive)
GI50 (NCI-H226): > 100 µM (inactive)
GI50 (NCI-H23): > 100 µM (inactive)
GI50 (NCI-H460): > 100 µM (inactive)
GI50 (NCI-H522): 51.3 µM (inactive)
GI50 (OVCAR-3): > 100 µM (inactive)
GI50 (OVCAR-4): > 100 µM (inactive)
GI50 (OVCAR-5): > 100 µM (inactive)
GI50 (OVCAR-8): > 100 µM (inactive)
GI50 (RPMI-8226): > 100 µM (inactive)
GI50 (RXF 393): 27.7 µM (inactive)
GI50 (RXF 631): > 100 µM (inactive)
GI50 (SF-268): > 100 µM (inactive)
GI50 (SF-295): > 100 µM (inactive)
GI50 (SF-539): > 100 µM (inactive)
GI50 (SK-MEL-28): > 100 µM (inactive)
GI50 (SK-MEL-2): > 100 µM (inactive)
GI50 (SK-MEL-5): > 100 µM (inactive)
GI50 (SN12C): > 100 µM (inactive)
GI50 (SNB-19): > 100 µM (inactive)
GI50 (SNB-75): 49.7 µM (inactive)
GI50 (SNB-78): > 100 µM (inactive)
GI50 (SW-620): > 100 µM (inactive)
GI50 (TK-10): > 100 µM (inactive)
GI50 (U-251): > 100 µM (inactive)
GI50 (UACC-257): > 100 µM (inactive)
GI50 (UACC-62): > 100 µM (inactive)
GI50 (UO-31): 59.6 µM (inactive)
GI50 (XF498): 48.9 µM (inactive)
